Measurements as given in ChEMBL document CHEMBL4742385 (2019).
Several values for one entry are separate records, joined by “and”; a condition that tells them apart may be missing. Equal entries are not always repeated.

Legend:
[1] = biological target: Cyclin-C/Cyclin-dependent kinase 19 (Homo sapiens) (UniProt Q9BWU1+P24863); assay: Inhibition of humanGST-tagged CDK19/Cyc C expressed in Sf21 cells at 1 uM measured after 1 hr by fluorescence plate reader relative to control
[2] = biological target: CDK8/Cyclin C (Homo sapiens) (UniProt P49336+P24863); assay: Inhibition of human CDK8/Cyc C expressed in Sf21 cells at 1 uM measured after 1 hr by fluorescence plate reader relative to control
RPMI-8226 = assay: Antiproliferative activity against human RPMI-8226 assessed as inhibition of cell growth at 1 uM after 8 days measured after Celltiter-Glo assay relative to control; type: functional; settings: time 8 day; for inhibition at 1 µM: Homo sapiens, RPMI-8226, 192 h

Row | SMILES | inhibition [1] | inhibition [2] | inhibition at 1 µM (RPMI-8226) [%] | inhibition (INH) (RPMI-8226) [%]
1 | O=C(/C=C/c1cnccc1-c1cnn(C2CC2)c1)Nc1ccc(CN2CC(F)(F)C2)cc1.O=S(=O)(O)O |  |  |  | 70
2 | O=C(/C=C/c1cnccc1-c1cnn(C2CC2)c1)Nc1ccc(CN2CC(F)(F)C2)cc1.O=C(O)CCC(=O)O |  |  |  | 66
3 | Cc1nn(C)cc1-c1ccncc1/C=C/C(=O)Nc1ccc(CCc2nnco2)cc1 | 98% | 100% | 54 | 
4 | Cn1cc(-c2c(F)cncc2/C=C/C(=O)Nc2ccc(CN3CCOCC3)cc2)cn1 | 100% | 100% | 67 | 
5 | Cn1cc(-c2ccncc2/C=C/C(=O)Nc2ccc3c(c2)OCO3)cn1 | 94% | 96% | 53 | 
6 | Cn1cnc2ccc(-c3ccncc3/C=C/C(=O)Nc3ccc4c(ccn4CC(F)(F)F)c3)cc21 | 84% | 85% | 63 | 
7 | Cn1cc(-c2ccncc2/C=C/C(=O)Nc2ccc3c(c2)OCCO3)cn1 | 97% | 100% | 59 | 
8 | Cn1cc(-c2ccncc2/C=C/C(=O)Nc2ccc(CN3CCOCC3)cc2F)cn1 | 97% | 99% | 56 | 
9 | Cn1cc(-c2ccncc2/C=C/C(=O)Nc2ccc3c(c2)CCN(CC(F)(F)F)C3)cn1 | 101% | 98% | 65 | 
10 | Cn1cc(-c2ccncc2/C=C/C(=O)Nc2ccc3cnccc3c2)cn1 | 99% | 96% | 62 | 
11 | Cc1ncc(-c2ccncc2/C=C/C(=O)Nc2ccc(CN3CCOCC3)cc2)s1 | 95% | 95% | 54 | 
12 | CC(=O)N(C)Cc1cc(NC(=O)/C=C/c2cnccc2-c2cnn(C)c2)ccc1C | 93% | 95% | 49 | 
13 | COc1ccsc1-c1ccncc1/C=C/C(=O)Nc1ccc(CN2CCOCC2)cc1 | 100% | 97% | 52 | 
14 | CCN1CCc2cc(NC(=O)/C=C/c3cnccc3-c3cnn(C)c3)ccc2C1 | 95% | 96% | 58 | 
15 | Cc1cc(NC(=O)/C=C/c2cnccc2-c2cnn(C)c2)ccc1CN1CCOCC1 | 98% | 96% | 58 | 
16 | CCn1cc(-c2ccncc2CCC(=O)Nc2ccc(CN3CCOCC3)cc2)cn1 | 85% | 90% | 62 | 
17 | O=C(/C=C/c1cnccc1-c1ccns1)Nc1ccc(CN2CCOCC2)cc1 | 98% | 101% | 54 | 
18 | Cn1cc(-c2ccncc2/C=C/C(=O)Nc2cc(F)c(CN3CCOCC3)cc2F)cn1 | 91% | 94% | 66 | 
19 | O=C(/C=C/c1cnccc1-c1ccc2ncn(CC3CC3)c2c1)Nc1ccc(CN2CCOCC2)cc1 | 96% | 95% | 60 | 
20 | Cn1cc(-c2ccncc2/C=C/C(=O)Nc2cccc(-c3cccnc3)c2)cn1 | 78% | 84% | 58 | 
21 | Cn1cc(-c2c(F)cncc2/C=C/C(=O)Nc2ccc3c(c2)CN(CC(F)(F)F)C3)cn1 | 104% | 106% | 56 | 
22 | O=C(/C=C/c1cnccc1-c1cnn(C2CC2)c1)Nc1ccc(CN2CC(F)(F)C2)cc1.O=P(O)(O)O.O=P(O)(O)O |  |  |  | 69
23 | Cc1ccc(NC(=O)/C=C/c2cnccc2-c2cn[nH]c2)c(F)c1 | 97% | 100% | 59 | 
24 | Cn1cc(-c2ccncc2/C=C/C(=O)Nc2ccc(N3CCOCC3)c(Cl)c2)cn1 | 100% | 102% | 60 | 
25 | O=C(/C=C/c1cnccc1-c1cccs1)Nc1ccc(CCc2nnco2)cc1 | 100% | 101% | 59 | 
26 | CS(=O)(=O)O.O=C(/C=C/c1cnccc1-c1cnn(C2CC2)c1)Nc1ccc(CN2CC(F)(F)C2)cc1 |  |  |  | 70
27 | O=C(/C=C/c1cnccc1-c1cnn(C2CC2)c1)Nc1ccc(CN2CC(F)(F)C2)cc1.O=C(O)/C=C/C(=O)O |  |  |  | 70

Now from value to compound, other results behind:

Row | inhibition [1] | inhibition [2] | SMILES | inhibition at 1 µM (RPMI-8226) [%] | inhibition (INH) (RPMI-8226) [%]
28 | 101% | 96% | Cn1cc(-c2ccncc2/C=C/C(=O)Nc2ccc(CCN3CCOCC3)cc2)cn1 | 59 | 
29 | 99% | 101% | COC1CN(Cc2ccc(NC(=O)/C=C/c3cnccc3-c3cnn(C4CC4)c3)cc2)C1 | 59 | 
30 | 98% | 103% | O=C(/C=C/c1cncc(F)c1-c1cnn(C2CC2)c1)Nc1ccc2c(c1)OCCO2 | 65 | 
31 | 97% | 94% | O=C(/C=C/c1cnccc1-c1cncs1)Nc1ccc(CN2CCOCC2)cc1 | 52 | 
32 | 97% | 92% | Cn1cc(-c2ccc(NC(=O)/C=C/c3cnccc3-c3cnn(C4CC4)c3)cc2)cn1 | 58 | 
33 | 93% | 102% | COC(C)c1ccc(NC(=O)/C=C/c2cnccc2-c2cnn(C3CC3)c2)cc1 (configuration not stated) | 62 | 
34 | 93% | 104% | Cn1cc(-c2ccncc2/C=C/C(=O)Nc2ccc(CN3CCCC3CO)cc2)cn1 (configuration not stated) | 52 | 
35 | 99% | 105% | Cn1cc(-c2ccncc2/C=C/C(=O)Nc2ccc(N3CC(F)(F)C3)cc2)cn1 | 50 | 
36 | 98% | 96% | CC(c1ccc(NC(=O)/C=C/c2cnccc2-c2cnn(C)c2)cc1)N1CCOCC1 (configuration not stated) | 57 | 
37 | 97% | 98% | COCCOc1ccc(NC(=O)/C=C/c2cnccc2-c2cnn(C)c2)cc1 | 62 | 
38 | 102% | 98% | O=C(/C=C/c1cnccc1-c1cnn(C2CC2)c1)Nc1ccc2c(c1)CN(CC(F)(F)F)CC2 | 63 | 
39 | 95% | 102% | CC(C)(F)Cc1ccc(NC(=O)/C=C/c2cnccc2-c2cnn(C3CC3)c2)cc1 | 61 | 
40 | 99% | 98% | Cc1cc(NC(=O)/C=C/c2cnccc2-c2cnn(C3CC3)c2)ccc1CN1CCOCC1 | 62 | 
41 | 95% | 100% | CC1COCCN1Cc1ccc(NC(=O)/C=C/c2cnccc2-c2cnn(C)c2)cc1 (configuration not stated) | 55 | 
42 | 97% | 101% | C[C@@H]1CN(Cc2ccc(NC(=O)/C=C/c3cnccc3-c3cnn(C)c3)cc2)C[C@H](C)O1 | 58 | 
43 | 87% | 92% | Cn1cc(-c2ccncc2/C=C/C(=O)Nc2ccc3c(c2)CCC3=O)cn1 | 54 | 
44 | 98% | 110% | O=C(/C=C/c1cnccc1-c1cnn(C2CC2)c1)Nc1ccc(CN2CC3(COC3)C2)cc1 | 56 | 

Row | inhibition [1] | inhibition [2] | SMILES | inhibition at 1 µM (RPMI-8226) [%] | inhibition (INH) (RPMI-8226) [%]
45 | 89% | 95% | O=C(/C=C/c1cnccc1-c1cnn(C2CC2)c1)Nc1ccc(C2CC2)cc1 | 53 | 
46 | 103% | 100% | CC(C)(O)Cc1ccc(NC(=O)/C=C/c2cnccc2-c2cnn(C3CC3)c2)cc1 | 61 | 
47 | 101% | 96% | CC(=O)n1cc(-c2ccncc2/C=C/C(=O)Nc2ccc(CN3CCOCC3)cc2)cn1 | 65 | 
48 | 98% | 98% | CN(C)CCc1ccc(NC(=O)/C=C/c2cnccc2-c2cnn(C)c2)cc1 | 66 | 
49 | 93% | 97% | O=C(/C=C/c1cnccc1-c1cnn(C2CC2)c1)Nc1ccc(COC(F)F)cc1 | 52 | 
50 | 99% | 98% | Cn1cc(-c2ccncc2/C=C/C(=O)Nc2ccc(CCC(F)(F)F)cc2)cn1 | 53 | 
51 | 99% | 99% | Cn1cc(-c2ccncc2/C=C/C(=O)Nc2ccc(CN3CC(F)(F)C3)cc2)cn1 | 48 | 
52 | 101% | 102% | O=C(/C=C/c1cncc(F)c1-c1cnn(C2CC2)c1)Nc1ccc(CN2CC3CC(C2)O3)cc1 | 59 | 
53 | 96% | 100% | Cn1cc(-c2ccncc2/C=C/C(=O)Nc2ccc(CN3CC4CC3CO4)cc2)cn1 (configuration not stated) | 58 | 
54 | 93% | 98% | Cn1cc(-c2ccncc2/C=C/C(=O)Nc2ccc3cc[nH]c3c2)cn1 | 54 | 
55 | 97% | 97% | Cn1cc(-c2ccncc2/C=C/C(=O)Nc2ccc(CN3CCC4(CC3)COC4)cc2)cn1 | 60 | 
56 | 96% | 101% | O=C(/C=C/c1cnccc1-c1cnn(C2CC2)c1)Nc1ccc(COCC(F)(F)F)cc1F | 53 | 
57 | 100% | 98% | O=C(/C=C/c1cnccc1-c1cnn(C(F)F)c1)Nc1ccc(CN2CCOCC2)cc1 | 53 | 
58 | 94% | 94% | Cn1cc(-c2ccncc2/C=C/C(=O)Nc2ccc3ccncc3c2)cn1 | 55 | 
59 | 94% | 105% | Cn1cc(-c2ccncc2/C=C/C(=O)Nc2ccc3c(c2)CN(CC(F)F)C3)cn1 | 63 | 
60 | 99% | 98% | Cn1cc(-c2ccncc2/C=C/C(=O)Nc2ccc3c(ccn3C)c2)cn1 | 55 | 
61 | 101% (3×) and 100% (3×) | 102% [middle of 6 runs] | O=C(/C=C/c1cnccc1-c1cnn(C2CC2)c1)Nc1ccc(CN2CC(F)(F)C2)cc1 |  | 
